# Laboratory results published in publication PMC7717565, “Structure of the Lifeact–F-actin complex” (PLoS Biology, 2020).
# Where no end group is shown, it is not given here.
# Experiments:
# [1] = test system: F-actin in yeast cells, WT actin; format: cell-based, Saccharomyces cerevisiae; conditions: for weighted colocalization coefficient of phalloidin with Lifeact–mCherry: native ABP140 promoter, fixed cells, ActinGreen 488, Fig 2B, mean of 15 cells from 2 independent experiments
# [2] = test system: F-actin in yeast cells, actin D25Y/D222G; format: cell-based, Saccharomyces cerevisiae; conditions: confocal microscopy, Fig 2C, endogenous actin replaced with D25Y variant
# [3] = test system: F-actin in yeast cells, actin L349M; format: cell-based, Saccharomyces cerevisiae; conditions: confocal microscopy, Fig 2C, endogenous actin replaced with L349M variant
# [4] = test system: TccC3HVR; experiment: ADP-ribosylation of actin by TccC3HVR; format: biochemical, Photorhabdus luminescens; conditions: for ADP-ribosylation level of actin (0 uM Lifeact = 1): Lifeact 100 uM, pH 8, 10 min 37°C
# [5] = test system: HEK 293T cells intoxicated with PTC3; experiment: Intoxication competition assay with PTC3 in HEK 293T cells (cell area); format: cell-based, human; conditions: 300 pM PTC3, 5 h, mCherry fusion expressed
# [6] = test system: F-actin; conditions: ref [5],[6]; cited from earlier work
# Text: Phalloidin and jasplakinolide are cyclic peptides derived from the death cap mushroom Amanita phalloides and marine sponge Jaspis johnstoni, respectively. They bind specifically to filamentous actin (F-actin), and when fused to a fluorescent probe, their derivatives allow visualization of the cell cytoskeleton by fluorescence microscopy. […] Recent electron cryo-microscopy (cryo-EM) studies from our group and others have uncovered h ...
# [7] = molecular target: F-actin (Oryctolagus cuniculus, UniProt P68135); experiment: Cosedimentation of Lifeact–mCherry with F-actin; format: binding, Rabbit (skeletal muscle α-actin); design: Bmax Value: unit not given here
# [8] = test system: ExoY-MBP binding to F-actin; experiment: Competition cosedimentation of F-actin with ExoY-MBP; design: species or system Pseudomonas aeruginosa ExoY; rabbit actin; conditions: for fraction of ExoY cosedimented with F-actin: Lifeact 300 uM, F-actin 1 μM, ExoY-MBP 1 μM
# [9] = test system: human cofilin-1 binding to F-actin; experiment: Competition cosedimentation of F-actin with cofilin-1; conditions: Lifeact 100 uM, F-actin 4 μM, cofilin-1 4 μM, pH 6.5
# Procedure: (§1) An aliquot of freshly thawed G-actin was centrifuged at 150,000 g using a TLA-55 rotor for 30 minutes at 4°C to remove possible aggregates. Then, actin was polymerized by incubation in F-buffer (120 mM KCl, 20 mM Tris pH 8, 2 mM MgCl2, 1 mM DTT, and 1 mM ATP) for 2 hours at room temperature or overnight at 4°C. For the cosedimentation experiments with myosin and tropomyosin, a 2-fold molar excess of phalloidin was added after the polymerization. Then, the actin filaments were pelleted using a TLA-55 rotor at 150,000 g for 30 minutes and resuspended in the following buffers: F-buffer was used for cosedimentations with tropomyosin or Lifeact–mCherry fusion proteins; 20 mM HEPES pH 6.5, 50 mM KCl, and 2 mM MgCl2 was used for cosedimentations with cofilin; and 120 mM KCl, 20 mM Tris pH 8, 2 mM MgCl2, and 1 mM DTT was used for cosedimentations with myosin.
# (§2) For the competition assays, Lifeact peptide was added to the mixture at the specified concentrations. […] The Kd values were calculated as previously described using GraphPad Prism software (GraphPad Software, USA) [34].
# (§3) Representative gels are shown. […] The error bars correspond to standard deviations of 3 independent experiments.
# [10] = test system: human tropomyosin alpha-1 binding to F-actin; experiment: Competition cosedimentation of F-actin with tropomyosin; conditions: Lifeact 100 uM, F-actin 3 μM, tropomyosin 3 μM
# Procedure: as §1, §2, §3
# [11] = test system: motor domain of human NM2C binding to F-actin; experiment: Competition cosedimentation of F-actin with NM2C motor domain; conditions: for fraction of myosin cosedimented with F-actin: Lifeact 100 uM, F-actin 0.2 μM, NM2C 0.2 μM, pH 8
# Procedure: The motor domain of nonmuscular myosin-2C (MYH14, isoform 2 from Homo sapiens) consisting of amino acids 1–799 was purified as described previously [32]
# Then, actin was polymerized by incubation in F-buffer (120 mM KCl, 20 mM Tris pH 8, 2 mM MgCl2, 1 mM DTT, and 1 mM ATP) for 2 hours at room temperature or overnight at 4°C. For the cosedimentation experiments with myosin and tropomyosin, a 2-fold molar excess of phalloidin was added after the polymerization. Then, the actin filaments were pelleted using a TLA-55 rotor at 150,000 g for 30 minutes and resuspended in the following buffers: F-buffer was used for cosedimentations with tropomyosin or Lifeact–mCherry fusion proteins; 20 mM HEPES pH 6.5, 50 mM KCl, and 2 mM MgCl2 was used for cosedimentations with cofilin; and 120 mM KCl, 20 mM Tris pH 8, 2 mM MgCl2, and 1 mM DTT was used for cosedimentations with myosin.
# as §2
# The error bars correspond to standard deviations of 3 independent experiments.
# [12] = test system: F-actin-rich patch in yeast cells; format: cell-based, Saccharomyces cerevisiae; conditions: Fig 3D
# [13] = test system: F-actin-rich patch in yeast cells; format: cell-based, Saccharomyces cerevisiae; conditions: Fig 3E
substance,measurement,setting,value
WT Lifeact–mCherry: wild-type Lifeact fused to mCherry [reference compound],"actin-rich structures (patches, cables, contractile rings) stained by Lifeact–mCherry","[1]; confocal microscopy, Fig 2A","typical actin-rich assemblies such as patches, cables, and contractile rings"
same,weighted colocalization coefficient of phalloidin with Lifeact–mCherry,[1],0.9009
same,actin-rich structures stained by Lifeact–mCherry,[2],absent
same,actin-rich structures stained by Lifeact–mCherry,[3],absent
same,factor of decrease of the level of ADP ribosylation,[4]; 3 μM,2
same,"effect on PTC3/TccC3HVR toxicity (cytoskeletal collapse, shrinkage)",[5],significantly reduced
jasplakinolide,effect on F-actin,[6],strongly stabilize F-actin
Phalloidin,effect on F-actin,[6],strongly stabilize F-actin
"F10A Lifeact: Lifeact F10A mutant peptide, which only binds weakly to F-actin (MGVADLIKKAESISKEE)",binding to F-actin,"[7]; in words, no value",only binds weakly to F-actin
same,effect on ExoY binding to F-actin,"[8]; Fig 5A, 5B",did not impair formation of the ExoY-F-actin complex
same,fraction of ExoY cosedimented with F-actin,[8]; 1st repeat,0.8832
same,fraction of ExoY cosedimented with F-actin,[8]; 2nd repeat,0.8982
same,fraction of ExoY cosedimented with F-actin,[8]; 3rd repeat,0.9357
same,fraction of ExoY cosedimented with F-actin,[8]; mean of 3,0.9057
same,effect on the level of ADP-ribosylation,"[4]; 100 μM, control reaction",did not decrease the level of ADP-ribosylation at all
same,ADP-ribosylation level of actin (0 uM Lifeact = 1),[4]; 1st repeat,1.142
same,ADP-ribosylation level of actin (0 uM Lifeact = 1),[4]; 2nd repeat,1.587
same,ADP-ribosylation level of actin (0 uM Lifeact = 1),[4]; 3rd repeat,0.8227
same,ADP-ribosylation level of actin (0 uM Lifeact = 1),[4]; mean of 3,1.184
same,fraction of cofilin cosedimented with F-actin,[9]; 1st repeat,0.5246
same,fraction of cofilin cosedimented with F-actin,[9]; 2nd repeat,0.4576
same,fraction of cofilin cosedimented with F-actin,[9]; 3rd repeat,0.5496
same,fraction of cofilin cosedimented with F-actin,[9]; mean of 3,0.5106
same,fraction of tropomyosin cosedimented with F-actin,[10]; 1st repeat,0.4801
same,fraction of tropomyosin cosedimented with F-actin,[10]; 2nd repeat,0.5601
same,fraction of tropomyosin cosedimented with F-actin,[10]; 3rd repeat,0.4901
same,fraction of tropomyosin cosedimented with F-actin,[10]; mean of 3,0.5101
same,effect on myosin binding to F-actin,"[11]; Fig 4B, 4C",nor could F10A Lifeact compete with cofilin-1 or NM2C
same,fraction of myosin cosedimented with F-actin,[11]; 1st repeat,0.8484
same,fraction of myosin cosedimented with F-actin,[11]; 2nd repeat,0.9522
same,fraction of myosin cosedimented with F-actin,[11]; 3rd repeat,0.8926
same,fraction of myosin cosedimented with F-actin,[11]; mean of 3,0.8977
"E17K: Lifeact E17K variant fused to mCherry (MGVADLIKKFESISKEK; also: fused to mCherry, His tag, end not given here)",Bmax Value,"[7]; 3 μM Lifeact–mCherry, F-buffer pH 8, fit value, Std dev in next column",0.9222
same,Kd,"[7]; 3 μM Lifeact–mCherry, F-buffer pH 8, full-precision fit value, Std dev in next column, unit as printed in Fig 3C",8.08 µM
same,staining of actin-rich structures compared with WT,"[1]; confocal microscopy, Fig 2A",stained actin-rich structures in a similar way as WT Lifeact
same,weighted colocalization coefficient of phalloidin with Lifeact–mCherry,[1],0.8293
same,change of average Lifeact–mCherry to phalloidin signal ratio vs WT,[12],insignificant increase
same,change of average patch to background signal ratio vs WT,[13],insignificant increase
same,"effect on PTC3/TccC3HVR toxicity (cytoskeletal collapse, shrinkage)",[5],significantly reduced
